Legend:
[1] = molecular target: T1, Dual specificity tyrosine-phosphorylation-regulated kinase 2 (Homo sapiens) (UniProt Q92630); assay: Inhibition of human recombinant DYRK2 at 15 nM in presence of ATP by radiometric assay relative to control
T1 sequence (whole entry): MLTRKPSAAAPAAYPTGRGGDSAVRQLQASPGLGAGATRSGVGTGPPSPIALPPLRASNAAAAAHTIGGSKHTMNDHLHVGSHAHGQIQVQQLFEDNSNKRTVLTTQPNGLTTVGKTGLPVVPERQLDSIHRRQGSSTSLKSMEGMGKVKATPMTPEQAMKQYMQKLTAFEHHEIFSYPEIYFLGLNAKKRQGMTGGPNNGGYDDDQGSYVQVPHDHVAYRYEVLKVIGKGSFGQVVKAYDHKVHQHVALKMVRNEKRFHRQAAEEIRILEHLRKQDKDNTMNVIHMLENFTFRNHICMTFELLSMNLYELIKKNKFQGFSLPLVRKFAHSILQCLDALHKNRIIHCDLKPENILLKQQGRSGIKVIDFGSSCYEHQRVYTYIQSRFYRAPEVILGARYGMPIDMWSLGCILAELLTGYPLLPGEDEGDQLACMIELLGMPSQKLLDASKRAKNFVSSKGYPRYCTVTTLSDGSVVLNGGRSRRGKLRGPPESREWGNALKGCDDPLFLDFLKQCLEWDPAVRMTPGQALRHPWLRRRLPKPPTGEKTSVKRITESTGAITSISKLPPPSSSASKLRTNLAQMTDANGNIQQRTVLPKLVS

Homo sapiens = species: Homo sapiens; assay: Inhibition of human recombinant p70S6K at 15 nM related to control ULK1
[2] = molecular target: T2, Calcium/calmodulin-dependent protein kinase type IV (Homo sapiens) (UniProt Q16566); assay: Inhibition of human recombinant CaMK4 at 500 nM related to control ULK1
T2 sequence (whole entry): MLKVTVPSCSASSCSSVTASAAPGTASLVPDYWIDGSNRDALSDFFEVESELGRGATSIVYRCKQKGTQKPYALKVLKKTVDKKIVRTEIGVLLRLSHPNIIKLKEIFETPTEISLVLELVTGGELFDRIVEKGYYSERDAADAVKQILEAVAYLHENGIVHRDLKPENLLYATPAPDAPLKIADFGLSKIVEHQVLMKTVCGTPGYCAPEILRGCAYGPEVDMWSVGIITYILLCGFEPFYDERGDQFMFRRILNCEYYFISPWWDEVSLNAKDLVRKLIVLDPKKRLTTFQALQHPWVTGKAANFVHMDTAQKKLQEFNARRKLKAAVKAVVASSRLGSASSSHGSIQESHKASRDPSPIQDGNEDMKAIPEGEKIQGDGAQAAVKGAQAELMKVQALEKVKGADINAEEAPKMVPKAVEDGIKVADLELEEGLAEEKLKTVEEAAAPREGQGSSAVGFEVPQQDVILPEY

[3] = molecular target: T3, Ephrin type-B receptor 4 (Homo sapiens) (UniProt P54760); assay: Inhibition of human recombinant EphB4 at 500 nM in presence of ATP by radiometric assay relative to control
T3 sequence (whole entry): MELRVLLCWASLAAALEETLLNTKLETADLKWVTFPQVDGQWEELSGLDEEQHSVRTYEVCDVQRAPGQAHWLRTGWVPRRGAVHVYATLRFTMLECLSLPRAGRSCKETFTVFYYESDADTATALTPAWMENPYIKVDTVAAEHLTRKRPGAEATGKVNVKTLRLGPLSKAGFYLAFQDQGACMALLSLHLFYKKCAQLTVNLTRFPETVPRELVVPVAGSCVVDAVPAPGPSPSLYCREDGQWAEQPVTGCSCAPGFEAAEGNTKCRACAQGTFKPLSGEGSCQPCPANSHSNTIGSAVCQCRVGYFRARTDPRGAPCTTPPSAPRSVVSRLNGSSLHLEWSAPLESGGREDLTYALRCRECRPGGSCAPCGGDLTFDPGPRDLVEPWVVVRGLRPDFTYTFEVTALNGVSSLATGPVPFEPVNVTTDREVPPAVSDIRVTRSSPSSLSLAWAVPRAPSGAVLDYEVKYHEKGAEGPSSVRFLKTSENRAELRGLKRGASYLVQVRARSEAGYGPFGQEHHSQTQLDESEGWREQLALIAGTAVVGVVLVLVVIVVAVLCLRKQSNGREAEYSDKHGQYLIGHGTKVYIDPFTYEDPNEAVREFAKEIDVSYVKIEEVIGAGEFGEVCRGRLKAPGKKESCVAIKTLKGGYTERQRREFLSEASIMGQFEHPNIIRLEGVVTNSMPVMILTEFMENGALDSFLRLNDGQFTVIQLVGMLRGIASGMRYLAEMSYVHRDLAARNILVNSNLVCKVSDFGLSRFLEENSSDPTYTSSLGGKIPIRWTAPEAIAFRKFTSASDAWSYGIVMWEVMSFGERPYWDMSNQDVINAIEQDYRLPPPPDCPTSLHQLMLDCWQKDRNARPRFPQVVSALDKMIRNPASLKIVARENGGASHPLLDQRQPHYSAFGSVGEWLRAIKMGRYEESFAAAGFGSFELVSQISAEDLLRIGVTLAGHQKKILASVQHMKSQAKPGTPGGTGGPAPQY

CC(C)[C@H](NC(=O)c1cc(-c2cnn3cc(-c4ccc(OCCN5CCCCC5)cc4)cnc23)cs1)C(F)(F)F
inhibition [1]: 8%
fold change (FC) (Homo sapiens): 0.19

CNC(=O)c1ccccc1Oc1nc(Nc2cc(OC)c(OC)c(OC)c2)ncc1Br
fold change (FC) [2]: 0
inhibition [3]: 0%
